Measurements from paper PMC5612938, “A multiple biomarker assay for quality assessment of botanical drugs using a versatile microfluidic chip” (Scientific Reports, 2017).

Biological target: T1, ACE (from rabbit lung) (Oryctolagus cuniculus, UniProt P12822)
T1 construct: ACE (from rabbit lung); purchased Sigma-Aldrich; host or cells: rabbit lung
T1 sequence (P12822 34-1310): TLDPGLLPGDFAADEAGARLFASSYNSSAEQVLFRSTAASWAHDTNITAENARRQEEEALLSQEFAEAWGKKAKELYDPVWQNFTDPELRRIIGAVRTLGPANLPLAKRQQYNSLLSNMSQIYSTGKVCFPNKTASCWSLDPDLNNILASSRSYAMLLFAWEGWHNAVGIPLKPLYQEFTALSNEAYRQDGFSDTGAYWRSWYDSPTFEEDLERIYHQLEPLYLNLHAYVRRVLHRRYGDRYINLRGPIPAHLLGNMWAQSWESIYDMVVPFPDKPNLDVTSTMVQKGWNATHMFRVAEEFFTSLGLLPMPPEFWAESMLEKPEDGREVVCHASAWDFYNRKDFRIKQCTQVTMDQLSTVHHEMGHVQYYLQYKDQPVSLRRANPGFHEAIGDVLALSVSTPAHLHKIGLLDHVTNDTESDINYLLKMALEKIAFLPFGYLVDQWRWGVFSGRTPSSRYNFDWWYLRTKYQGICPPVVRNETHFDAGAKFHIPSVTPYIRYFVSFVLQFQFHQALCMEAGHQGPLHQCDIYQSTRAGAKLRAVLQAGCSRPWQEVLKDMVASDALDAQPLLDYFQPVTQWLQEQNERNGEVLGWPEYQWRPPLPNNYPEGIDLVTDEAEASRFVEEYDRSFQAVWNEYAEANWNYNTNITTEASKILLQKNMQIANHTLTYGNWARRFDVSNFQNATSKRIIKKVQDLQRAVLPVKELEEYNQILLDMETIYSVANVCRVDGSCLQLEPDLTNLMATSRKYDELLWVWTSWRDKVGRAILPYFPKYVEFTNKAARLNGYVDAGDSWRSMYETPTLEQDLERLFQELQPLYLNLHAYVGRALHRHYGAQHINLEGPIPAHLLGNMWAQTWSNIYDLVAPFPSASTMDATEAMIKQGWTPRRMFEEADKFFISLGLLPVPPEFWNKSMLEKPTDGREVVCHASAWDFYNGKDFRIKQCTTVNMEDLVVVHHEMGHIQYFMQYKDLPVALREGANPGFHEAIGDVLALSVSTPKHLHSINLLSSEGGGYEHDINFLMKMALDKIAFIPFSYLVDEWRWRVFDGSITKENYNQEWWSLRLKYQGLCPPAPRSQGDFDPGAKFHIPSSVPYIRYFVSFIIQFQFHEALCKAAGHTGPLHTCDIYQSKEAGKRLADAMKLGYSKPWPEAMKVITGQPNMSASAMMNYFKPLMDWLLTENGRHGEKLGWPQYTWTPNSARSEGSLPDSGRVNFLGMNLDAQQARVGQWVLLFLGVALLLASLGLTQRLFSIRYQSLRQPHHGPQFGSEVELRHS
Assay: on-chip affinity screening, binding degree by LC-MS peak area vs protein-free control (ACE)
Conditions: for ACE; [(As − Ac)/As] × 100, sample vs protein-free control, EIC peak area
From the text: In addition to quality assessment, the microfluidic chip can also function as “affinity chromatography” to identify bioactive constituents from botanical drugs in a convenient and efficient manner. After the bioassay, the bound phytochemicals were dissociated from the enzymes and accurately identified by LC-MS. The material used for the chambers in microfluidic system, polydimethylsiloxane (PDMS), is apt to adsorb small molecules nonspecifically, thus a protein-free control was applied to reflect the degree of nonspecific binding of compounds to the chip. Peak areas were obtained from the extracted ion chromatography (EIC) in an ion-trap mass spectrometry (IT-MS), and binding degree (binding degree % = [(As − Ac)/As] × 100, where As and Ac were the peak area in the sample and control, respectively) was calculated to indicate binding specificity. […] All these peaks were unambiguously confirmed via comparisons with chemical standards in terms of retention time and mass spectra (Table 2), and five thrombin inhibitors (danshensu, salvianolic acid B, salvianolic acid C, rosmarinic acid and ginsenoside Rg1) and six ACE inhibitors (astragaloside IV, ononin, formononetin, calycosin, danshensu and salvianolic acid B) were preliminarily identified. […] Enzyme inhibition assays of these hit compounds were then performed to verify the screening results. […] Compounds showing an inhibition rate over 70% were subjected to IC50 measurement.
MBs (10 mg/mL) were diluted 10 times in PB or Tris-HCl buffer, and 10 μL of the diluted MBs (1 mg/mL) were injected into one channel of the chip using a syringe infusion pump (Harvard Apparatus, USA) and retained by an external magnet. Then, 10 μL of thrombin or ACE solution was added and incubated with MBs for two hours at room temperature to form enzyme-MB complexes. The magnet was manually controlled to move MBs back and forth to enhance the ratio of reaction. Subsequently, MBs were washed twice in assay buffer and magnetically transferred to the other channel through the fluidic bridge, whose opening and closing was controlled by a pneumatic valve. Next, 10 μL of sample solutions of tested drug and 10 μL of enzymatic substrate were sequentially infused to the channel by the pump and incubated with the enzyme. When the enzymatic reaction was finished, the MBs were retained in the channel, and air was injected into the channel from the inlet using a syringe to push all the reacted solution to a 384-well plate. The absorbance of the solution was then monitored at 405 nm (for S-2238) or 340 nm (for FAPGG) using an Infinite F200 spectrophotometer (Tecan, Männedorf, Switzerland). Moreover, after detection, the reaction channel was washed three times by assay buffer to remove unbound constituents. 20 μL of 80% aqueous methanol was then injected and incubated with MBs for one hour to dissociate the bound constituents. The resulting solutions of replicates were combined, evaporated by a centrifugal evaporator, reconstituted in 80% aqueous methanol, centrifuged at 10,000 rpm for 10 min, and analyzed by LC-MS for chemical identification.
An Agilent 1100 HPLC system (Agilent Technologies, Waldbronn, Germany) coupled with an LCQ Deca XP^plus IT-MS (Thermo Finnigan, San Jose, CA, USA) equipped with an electrospray ionization (ESI) interface was employed for structure elucidation of the bounded constituents. The analysis was performed in negative ionization mode under following operation parameters: scan range m/z 100–1500; capillary voltage −15 V; source voltage −3 kV; capillary temperature 350 °C; sheath gas (N2) 60 arb; auxiliary gas (N2) 20 arb.

SMILES | Binding degree (%)
O=C(/C=C/c1ccc(O)c2c1[C@H](C(=O)O[C@H](Cc1ccc(O)c(O)c1)C(=O)O)[C@@H](c1ccc(O)c(O)c1)O2)O[C@H](Cc1ccc(O)c(O)c1)C(=O)O [Salvianolic acid B] | 41.3%
O=C(O)C(O)Cc1ccc(O)c(O)c1 (centres unmarked) [Danshensu] | 57.2%
